{"source": "patent US20060069132A1", "about": "“Azolecarboxamide herbicides” (priority 2004, published 2006)", "key": {"barnyardgrass": {"test_system": "barnyardgrass", "test": "Test A pre-/postemergence herbicide test", "type": "in vivo, Echinochloa crus-galli", "conditions": "Echinochloa crus-galli, 240 h; for pest or weed control at 500 g/ha: 500 g ai/ha; for pest or weed control at 2000 g/ha: 2000 g ai/ha", "method_in_brief": "(§1)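 Plants are held in greenhouse about ten days after treatment, then compared with untreated controls and scored 0 (no effect) to 100 (complete control). Preemergence dosing is a directed soil spray on sown sandy loam; postemergence dosing is spray to runoff at 2–10 cm height.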"}, "morningglory": {"test_system": "morningglory", "test": "Test A pre-/postemergence herbicide test", "type": "in vivo, Ipomoea spp.", "conditions": "Ipomoea, 240 h; for pest or weed control at 500 g/ha: 500 g ai/ha; for pest or weed control at 2000 g/ha: 2000 g ai/ha", "method_in_brief": "as §1"}, "redroot pigweed": {"test_system": "redroot pigweed", "test": "Test A pre-/postemergence herbicide test", "type": "in vivo, Amaranthus retroflexus", "conditions": "Amaranthus retroflexus, 240 h; for pest or weed control at 500 g/ha: 500 g ai/ha; for pest or weed control at 2000 g/ha: 2000 g ai/ha", "method_in_brief": "as §1"}, "bermudagrass": {"test_system": "bermudagrass", "test": "Test C pre-/postemergence herbicide test", "type": "in vivo, Cynodon dactylon", "method_in_brief": "(§2)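 Greenhouse-grown plants were evaluated visually 12 to 14 days after treatment, with 100 meaning complete control and 0 no effect. Application was preemergence, or postemergence at 2 to 18 cm.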"}, "large crabgrass": {"test_system": "large crabgrass", "test": "Test C pre-/postemergence herbicide test", "type": "in vivo, Digitaria sanguinalis", "method_in_brief": "as §2"}, "eastern black nightshade": {"test_system": "eastern black nightshade", "test": "Test C pre-/postemergence herbicide test", "type": "in vivo, Solanum ptycanthum", "method_in_brief": "as §2"}, "velvetleaf": {"test_system": "velvetleaf", "test": "Test C pre-/postemergence herbicide test", "type": "in vivo, Abutilon theophrasti", "method_in_brief": "as §2"}, "ducksalad": {"test_system": "ducksalad", "test": "Test C flooded paddy test", "type": "in vivo, Heteranthera limosa", "conditions": "Heteranthera limosa"}, "[1]": {"conditions": "post-emergence, Postemergence, 0 to 100 scale, 0 no effect, 100 complete control, read-out: Plant response rating, Barnyardgrass"}, "[2]": {"conditions": "post-emergence, Postemergence, 0 to 100 scale, 0 no effect, 100 complete control, read-out: Plant response rating, Morningglory"}, "[3]": {"conditions": "post-emergence, Postemergence, 0 to 100 scale, 0 no effect, 100 complete control, read-out: Plant response rating, Pigweed"}, "[4]": {"conditions": "Preemergence, 500 g ai/ha, scale 0 to 100, 0 no effect, 100 complete control"}}, "note": "Like-named read-outs stand apart in the source and are kept apart here.", "data": [{"smiles": "CCNC(=O)c1ccc(F)c(NC(=O)c2cc(C(C)(C)C)nn2CC)c1", "note": "[Compound 2, 3-(1,1-dimethylethyl)-1-ethyl-N-[5-[(ethylamino)carbonyl]-2-fluorophenyl]-1H-pyrazole-5-carboxamide]", "values": [{"measurement": "pest or weed control at 500 g/ha", "setting": "barnyardgrass; [1]", "value": 100, "unit": "%"}, {"measurement": "pest or weed control at 2000 g/ha", "setting": "barnyardgrass; [1]", "value": 100, "unit": "%"}, {"measurement": "pest or weed control at 500 g/ha", "setting": "barnyardgrass; pre-emergence, Preemergence, visual rating, 0 to 100 scale (0 no effect, 100 complete control), read-out: Barnyardgrass plant response rating", "value": 100, "unit": "%"}, {"measurement": "pest or weed control at 2000 g/ha", "setting": "barnyardgrass; pre-emergence, Preemergence, 0 to 100 scale, 0 no effect, 100 complete control, read-out: Barnyardgrass plant response rating", "value": 100, "unit": "%"}, {"measurement": "pest or weed control at 500 g/ha", "setting": "morningglory; [2]", "value": 45, "unit": "%"}, {"measurement": "pest or weed control at 2000 g/ha", "setting": "morningglory; [2]", "value": 80, "unit": "%"}, {"measurement": "pest or weed control at 500 g/ha", "setting": "morningglory; pre-emergence, Preemergence, visual rating, 0 to 100 scale (0 no effect, 100 complete control), read-out: Morningglory plant response rating", "value": 80, "unit": "%"}, {"measurement": "pest or weed control at 2000 g/ha", "setting": "morningglory; pre-emergence, Preemergence, 0 to 100 scale, 0 no effect, 100 complete control, read-out: Morningglory plant response rating", "value": 100, "unit": "%"}, {"measurement": "pest or weed control at 500 g/ha", "setting": "redroot pigweed; [3]", "value": 100, "unit": "%"}, {"measurement": "pest or weed control at 2000 g/ha", "setting": "redroot pigweed; [3]", "value": 100, "unit": "%"}, {"measurement": "pest or weed control at 500 g/ha", "setting": "redroot pigweed; pre-emergence, Preemergence, visual rating, 0 to 100 scale (0 no effect, 100 complete control), read-out: Pigweed plant response rating", "value": 100, "unit": "%"}, {"measurement": "pest or weed control at 2000 g/ha", "setting": "redroot pigweed; pre-emergence, Preemergence, 0 to 100 scale, 0 no effect, 100 complete control, read-out: Pigweed plant response rating", "value": 100, "unit": "%"}, {"measurement": "Plant response rating (0 = no effect, 100 = complete control), Bermudagrass", "setting": "bermudagrass; 62 g ai/ha, preemergence", "value": 85}, {"measurement": "pest or weed control at 125 g/ha", "setting": "bermudagrass; Cynodon dactylon, pre-emergence, 312 h, 125 g ai/ha, scale 0-100, read-out: Plant response rating, Bermudagrass", "value": 90, "unit": "%"}, {"measurement": "pest or weed control at 250 g/ha", "setting": "bermudagrass; Cynodon dactylon, pre-emergence, 312 h, 250 g ai/ha, scale 0 to 100 (0 no effect, 100 complete control), visual, 12 to 14 days, read-out: Plant response rating, Bermudagrass", "value": 95, "unit": "%"}, {"measurement": "pest or weed control at 500 g/ha", "setting": "bermudagrass; Cynodon dactylon, pre-emergence, 312 h, Preemergence, 500 g ai/ha, scale 0 to 100, 0 no effect, 100 complete control, read-out: Bermudagrass plant response rating", "value": 95, "unit": "%"}, {"measurement": "Plant response rating (0 = no effect, 100 = complete control), Crabgrass, Large", "setting": "large crabgrass; 62 g ai/ha, preemergence", "value": 95}, {"measurement": "pest or weed control at 125 g/ha", "setting": "large crabgrass; Digitaria sanguinalis, pre-emergence, 312 h, 125 g ai/ha, scale 0-100, read-out: Plant response rating, Crabgrass, Large", "value": 95, "unit": "%"}, {"measurement": "pest or weed control at 250 g/ha", "setting": "large crabgrass; Digitaria sanguinalis, pre-emergence, 312 h, 250 g ai/ha, scale 0 to 100 (0 no effect, 100 complete control), visual, 12 to 14 days, read-out: Plant response rating, Crabgrass, Large", "value": 100, "unit": "%"}, {"measurement": "Crabgrass, Large plant response rating", "setting": "large crabgrass; [4]", "value": 100}, {"measurement": "Plant response rating (0 = no effect, 100 = complete control), Nightshade", "setting": "eastern black nightshade; 62 g ai/ha, preemergence", "value": 100}, {"measurement": "Nightshade plant response rating", "setting": "eastern black nightshade; [4]", "value": 100}, {"measurement": "pest or weed control at 250 g/ha", "setting": "eastern black nightshade; pre-emergence, 250 g ai/ha, scale 0 to 100 (0 no effect, 100 complete control), visual, 12 to 14 days, read-out: Plant response rating, Nightshade", "value": 100, "unit": "%"}, {"measurement": "Plant response rating (0 = no effect, 100 = complete control), Velvetleaf", "setting": "velvetleaf; 62 g ai/ha, preemergence", "value": 60}, {"measurement": "pest or weed control at 250 g/ha", "setting": "velvetleaf; Abutilon theophrasti, pre-emergence, 250 g ai/ha, scale 0 to 100 (0 no effect, 100 complete control), visual, 12 to 14 days, read-out: Plant response rating, Velvetleaf", "value": 100, "unit": "%"}, {"measurement": "Velvetleaf plant response rating", "setting": "velvetleaf; [4]", "value": 100}, {"measurement": "pest or weed control at 62 g/ha", "setting": "ducksalad; 62 g ai/ha, scale 0 to 100 (0 no effect, 100 complete control), read-out: Ducksalad plant response rating", "value": 80, "unit": "%"}, {"measurement": "pest or weed control at 125 g/ha", "setting": "ducksalad; 125 g ai/ha, scale of 0 to 100, 0 is no effect, 100 is complete control, read-out: Ducksalad plant response rating", "value": 80, "unit": "%"}, {"measurement": "pest or weed control at 250 g/ha", "setting": "ducksalad; 250 g ai/ha, visual rating after 12 to 14 days, scale 0 to 100 (0 no effect, 100 complete control), read-out: Plant response rating, Ducksalad", "value": 85, "unit": "%"}, {"measurement": "pest or weed control at 500 g/ha", "setting": "ducksalad; 500 g ai/ha, visual rating after 12 to 14 days, scale 0 to 100 (0 no effect, 100 complete control), read-out: Plant response rating, Ducksalad", "value": 95, "unit": "%"}]}]}
